According to patent US12012409B2, “Bicyclic heterocycles as FGFR inhibitors” (Incyte Corporation, priority 2020, dated 2024):

Experiments:
Assay type in all cases: biochemical
Conditions in all cases: wild-type un-phosphorylated protein; pre-incubated for 4 hours; ATP near or below Km
[1] = biological target: wild-type un-phosphorylated FGFR3 (Homo sapiens, UniProt P22607); assay: FGFR Enzymatic Assay (FRET peptide phosphorylation), FGFR3
Method: (§1) The inhibitor potency of the exemplified compounds was determined in an enzyme discontinuous assay that measures peptide phosphorylation using FRET measurements to detect product formation. Inhibitors were serially diluted in DMSO and a volume of 0.2 μL was transferred to the wells of a 384-well plate. […] Appropriate controls (enzyme blank and enzyme with no inhibitor) were included on the plate. […] The ATP Km values were pre-determined in a separate series of experiments. […] The plate was allowed to equilibrate for ˜10 minutes at ambient temperature before scanning on a PheraStar plate reader (BMG Labtech) instrument.
(§2) Either GraphPad prism or XLfit was used to analyze the data. The IC50 values were derived by fitting the data to a four parameter logistic equation producing a sigmoidal dose-response curve with a variable Hill coefficient. Prism equation: Y=Bottom+(Top−Bottom)/(1+10^((LogIC50−X)*Hill slope)); XLfit equation: Y=(A+((B−A)/(1+((X/C)^D)))) where X is the logarithm of inhibitor concentration and Y is the response.

[2] = biological target: wild-type un-phosphorylated FGFR1 (Homo sapiens, UniProt P11362); assay: FGFR Enzymatic Assay (FRET peptide phosphorylation), FGFR1
Chain of wild-type un-phosphorylated FGFR1 (P11362 22-822): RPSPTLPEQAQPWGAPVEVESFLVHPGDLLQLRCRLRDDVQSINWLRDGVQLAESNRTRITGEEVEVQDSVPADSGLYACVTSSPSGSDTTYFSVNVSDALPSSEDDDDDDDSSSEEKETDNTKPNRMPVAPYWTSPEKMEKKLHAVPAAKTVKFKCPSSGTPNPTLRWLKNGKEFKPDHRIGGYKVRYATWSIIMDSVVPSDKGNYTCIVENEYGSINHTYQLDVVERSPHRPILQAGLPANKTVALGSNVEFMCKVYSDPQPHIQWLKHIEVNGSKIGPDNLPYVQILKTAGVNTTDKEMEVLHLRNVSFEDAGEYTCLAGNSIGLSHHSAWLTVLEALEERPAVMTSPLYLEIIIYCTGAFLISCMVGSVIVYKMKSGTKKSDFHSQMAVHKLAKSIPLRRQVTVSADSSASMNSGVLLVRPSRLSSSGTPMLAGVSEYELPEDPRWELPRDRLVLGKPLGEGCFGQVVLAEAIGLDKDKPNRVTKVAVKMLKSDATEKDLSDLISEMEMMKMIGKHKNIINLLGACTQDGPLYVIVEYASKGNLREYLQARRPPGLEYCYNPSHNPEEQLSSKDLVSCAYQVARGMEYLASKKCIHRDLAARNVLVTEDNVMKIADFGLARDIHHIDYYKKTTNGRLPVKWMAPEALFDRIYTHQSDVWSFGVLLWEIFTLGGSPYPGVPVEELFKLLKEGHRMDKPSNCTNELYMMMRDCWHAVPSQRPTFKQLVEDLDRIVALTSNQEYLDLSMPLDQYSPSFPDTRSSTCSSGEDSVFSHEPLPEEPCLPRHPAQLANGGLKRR
Method: as §1, §2

[3] = biological target: wild-type un-phosphorylated FGFR2 (Homo sapiens, UniProt P21802); assay: FGFR Enzymatic Assay (FRET peptide phosphorylation), FGFR2
Chain of wild-type un-phosphorylated FGFR2 (P21802 22-821): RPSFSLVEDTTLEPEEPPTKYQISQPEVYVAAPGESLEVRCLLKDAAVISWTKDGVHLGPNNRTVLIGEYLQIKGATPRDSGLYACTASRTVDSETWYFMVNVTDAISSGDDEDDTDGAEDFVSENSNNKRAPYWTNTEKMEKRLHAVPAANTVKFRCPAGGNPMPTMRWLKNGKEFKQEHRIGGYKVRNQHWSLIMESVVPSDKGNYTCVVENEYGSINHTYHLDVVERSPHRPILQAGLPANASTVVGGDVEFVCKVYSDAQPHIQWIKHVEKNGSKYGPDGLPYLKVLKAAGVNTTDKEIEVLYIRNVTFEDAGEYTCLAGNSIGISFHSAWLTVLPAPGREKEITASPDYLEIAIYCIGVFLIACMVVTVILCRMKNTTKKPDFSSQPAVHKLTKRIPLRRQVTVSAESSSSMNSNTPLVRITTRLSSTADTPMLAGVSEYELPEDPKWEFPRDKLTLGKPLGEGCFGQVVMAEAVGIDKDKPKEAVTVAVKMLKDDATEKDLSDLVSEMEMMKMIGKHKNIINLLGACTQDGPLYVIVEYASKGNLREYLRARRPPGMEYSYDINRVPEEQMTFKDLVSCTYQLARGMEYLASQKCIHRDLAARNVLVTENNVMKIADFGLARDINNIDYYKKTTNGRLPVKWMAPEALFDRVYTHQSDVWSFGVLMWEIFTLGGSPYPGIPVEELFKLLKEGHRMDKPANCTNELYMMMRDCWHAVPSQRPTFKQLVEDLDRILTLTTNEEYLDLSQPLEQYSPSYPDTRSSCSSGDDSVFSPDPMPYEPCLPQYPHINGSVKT
Method: as §1, §2
The data in Table 1 was measured in wild-type un-phosphorylated FGFR1, FGFR2, FGFR3 and FGFR4 protein.

Chain of wild-type un-phosphorylated FGFR3 (P22607 23-806): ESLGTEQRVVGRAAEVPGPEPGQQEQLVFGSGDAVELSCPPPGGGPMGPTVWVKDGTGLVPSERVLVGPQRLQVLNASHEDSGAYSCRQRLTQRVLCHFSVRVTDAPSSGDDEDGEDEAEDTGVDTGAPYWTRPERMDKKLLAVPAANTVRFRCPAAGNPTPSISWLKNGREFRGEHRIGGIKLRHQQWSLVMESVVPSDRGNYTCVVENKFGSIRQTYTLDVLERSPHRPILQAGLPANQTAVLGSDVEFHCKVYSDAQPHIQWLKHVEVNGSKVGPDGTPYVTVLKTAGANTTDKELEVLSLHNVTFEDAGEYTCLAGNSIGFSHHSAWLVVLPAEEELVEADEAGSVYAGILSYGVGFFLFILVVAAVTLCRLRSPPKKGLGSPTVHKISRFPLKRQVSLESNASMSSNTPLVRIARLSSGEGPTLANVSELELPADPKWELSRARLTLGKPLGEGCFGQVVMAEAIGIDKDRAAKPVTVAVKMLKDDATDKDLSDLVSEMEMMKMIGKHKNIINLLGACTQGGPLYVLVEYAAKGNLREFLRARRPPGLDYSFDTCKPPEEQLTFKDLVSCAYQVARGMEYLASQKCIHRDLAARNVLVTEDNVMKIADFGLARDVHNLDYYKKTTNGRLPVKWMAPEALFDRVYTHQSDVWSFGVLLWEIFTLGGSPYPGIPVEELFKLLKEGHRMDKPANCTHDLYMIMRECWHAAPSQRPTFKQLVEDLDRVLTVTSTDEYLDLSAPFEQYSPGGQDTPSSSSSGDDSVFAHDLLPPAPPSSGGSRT

| Compound | IC50 [1] [nM] | IC50 [2] [nM] | IC50 [3] [nM] |
| --- | --- | --- | --- |
| COc1nn2c(-c3cncc(C)c3)cnc2cc1-c1cnn(C)c1 [Example 3, 6-Methoxy-7-(1-methyl-1H-pyrazol-4-yl)-3-(5-methylpyridin-3-yl)imidazo[1,2-b]pyridazine] | 100 to 400 | ≥ 400 | – |
| CNC(=O)c1cncc(-c2cnc3cc(-c4cnn(C)c4)c(OC)nn23)c1 [Example 4, 5-(6-Methoxy-7-(1-methyl-1H-pyrazol-4-yl)imidazo[1,2-b]pyridazin-3-yl)-N-methylnicotinamide] | – | – | 100 to 400 |
| COc1nn2c(-c3ccc4ncccc4c3)cnc2cc1-c1cnn(C)c1 [Example 5, 6-(6-Methoxy-7-(1-methyl-1H-pyrazol-4-yl)imidazo[1,2-b]pyridazin-3-yl)quinoline] | 100 to 400 | 100 to 400 | – |
| COc1nn2c(-c3cccc(N4CCOCC4)c3)cnc2cc1-c1cnn(C)c1 [Example 6, 4-(3-(6-Methoxy-7-(1-methyl-1H-pyrazol-4-yl)imidazo[1,2-b]pyridazin-3-yl)phenyl)morpholine] | 100 to 400 | 100 to 400 | – |
| COc1nn2c(-c3cccc(CC#N)c3)cnc2cc1-c1cnn(C)c1 [Example 7, 2-(3-(6-Methoxy-7-(1-methyl-1H-pyrazol-4-yl)imidazo[1,2-b]pyridazin-3-yl)phenyl)acetonitrile] | 10 to 100 | 10 to 100 | – |
| CNS(=O)(=O)c1cccc(-c2cnc3cc(-c4cnn(C)c4)c(OC)nn23)c1 [Example 8, 3-(6-Methoxy-7-(1-methyl-1H-pyrazol-4-yl)imidazo[1,2-b]pyridazin-3-yl)-N-methylbenzenesulfonamide] | < 10 | < 10 | – |
| COc1nn2c(-c3cccc(C(C)(C)O)c3)cnc2cc1-c1cnn(C)c1 [Example 9, 2-(3-(6-Methoxy-7-(1-methyl-1H-pyrazol-4-yl)imidazo[1,2-b]pyridazin-3-yl)phenyl)propan-2-ol] | 10 to 100 | 10 to 100 | – |
| COc1nn2c(-c3cccc(NC(C)=O)c3)cnc2cc1-c1cnn(C)c1 [Example 10, N-(3-(6-Methoxy-7-(1-methyl-1H-pyrazol-4-yl)imidazo[1,2-b]pyridazin-3-yl)phenyl)acetamide] | < 10 | < 10 | – |
| CNC(=O)c1cc(-c2ccc(F)cc2F)cc(-c2cnc3cc(-c4cnn(C)c4)c(OC)nn23)c1 [Example 11, 2′,4′-Difluoro-5-(6-methoxy-7-(1-methyl-1H-pyrazol-4-yl)imidazo[1,2-b]pyridazin-3-yl)-N-methyl-[1,1′-biphenyl]-3-carboxamide] | < 10 | 10 to 100 | – |
| CNC(=O)c1ccc(OC)c(-c2cnc3cc(-c4cnn(C)c4)c(OC)nn23)c1 [Example 12, 4-Methoxy-3-(6-methoxy-7-(1-methyl-1H-pyrazol-4-yl)imidazo[1,2-b]pyridazin-3-yl)-N-methylbenzamide] | ≥ 400 | ≥ 400 | – |
| CNC(=O)c1ccc(C#N)c(-c2cnc3cc(-c4cnn(C)c4)c(OC)nn23)c1 [Example 13, 4-Cyano-3-(6-methoxy-7-(1-methyl-1H-pyrazol-4-yl)imidazo[1,2-b]pyridazin-3-yl)-N-methylbenzamide] | ≥ 400 | ≥ 400 | – |
| CNC(=O)c1cccc(-c2cnc3cc(-c4cnn(C)c4)c(OC4CC(C#N)C4)nn23)c1 (stereo not drawn) [Example 56, 3-(6-(3-Cyanocyclobutoxy)-7-(1-methyl-1H-pyrazol-4-yl)imidazo[1,2-b]pyridazin-3-yl)-N-methylbenzamide] | 100 to 400 | 100 to 400 | – |

The remaining lines, values ahead:

| IC50 [1] [nM] | IC50 [2] [nM] | IC50 [3] [nM] | Compound |
| --- | --- | --- | --- |
| 10 to 100 | 10 to 100 | – | COc1nn2c(-c3cc(C(=O)NCC(F)(F)F)ccc3F)cnc2cc1-c1cnn(C)c1 [Example 14, 4-Fluoro-3-(6-methoxy-7-(1-methyl-1H-pyrazol-4-yl)imidazo[1,2-b]pyridazin-3-yl)-N-(2,2,2-trifluoroethyl)benzamide] |
| < 10 | 10 to 100 | – | CNC(=O)c1cncc(-c2cnc3cc(-c4cnn(C)c4)c(OC4COC4)nn23)c1 [Example 15, N-Methyl-5-(7-(1-methyl-1H-pyrazol-4-yl)-6-(oxetan-3-yloxy)imidazo[1,2-b]pyridazin-3-yl)nicotinamide] |
| ≥ 400 | ≥ 400 | – | CNC(=O)c1cc(F)c(F)c(-c2cnc3cc(-c4cnn(C)c4)c(O[C@H]4CCN(C)C4)nn23)c1 [Example 16, (S)-3,4-Difluoro-N-methyl-5-(7-(1-methyl-1H-pyrazol-4-yl)-6-((1-methylpyrrolidin-3-yl)oxy)imidazo[1,2-b]pyridazin-3-yl)benzamide] |
| 10 to 100 | ≥ 400 | – | CNC(=O)c1cc(F)c(F)c(-c2cnc3cc(-c4cnn(C)c4)c(O[C@H]4CCNC4)nn23)c1 [Example 17, (S)-3,4-Difluoro-N-methyl-5-(7-(1-methyl-1H-pyrazol-4-yl)-6-(pyrrolidin-3-yloxy)imidazo[1,2-b]pyridazin-3-yl)benzamide] |
| < 10 | 10 to 100 | – | CNC(=O)c1cc(F)c(F)c(-c2cnc3cc(-c4cnn(C)c4)c(O[C@H]4CCNC4=O)nn23)c1 [Example 18, (S)-3,4-Difluoro-N-methyl-5-(7-(1-methyl-1H-pyrazol-4-yl)-6-((2-oxopyrrolidin-3-yl)oxy)imidazo[1,2-b]pyridazin-3-yl)benzamide] |
| < 10 | 10 to 100 | < 10 | CNC(=O)c1cc(F)c(F)c(-c2cnc3cc(-c4cnn(C)c4)c(N[C@H]4CCOC4)nn23)c1 [Example 19, (S)-3,4-Difluoro-N-methyl-5-(7-(1-methyl-1H-pyrazol-4-yl)-6-((tetrahydrofuran-3-yl)amino)imidazo[1,2-b]pyridazin-3-yl)benzamide] |
| 10 to 100 | 100 to 400 | – | CNC(=O)c1cc(-c2cnc3cc(-c4cnn(C)c4)c(O[C@H]4CCOC4)nn23)c(F)c(N(C)C)c1 [Example 37, (S)-3-(Dimethylamino)-4-fluoro-N-methyl-5-(7-(1-methyl-1H-pyrazol-4-yl)-6-((tetrahydrofuran-3-yl)oxy)imidazo[1,2-b]pyridazin-3-yl)benzamide] |
| < 10 | 10 to 100 | – | CNC(=O)c1cc(-c2cnc3cc(-c4cnn(C)c4)c(O[C@H]4CCOC4)nn23)c(F)c(C2CC2)c1 [Example 38, (S)-3-Cyclopropyl-4-fluoro-N-methyl-5-(7-(1-methyl-1H-pyrazol-4-yl)-6-((tetrahydrofuran-3-yl)oxy)imidazo[1,2-b]pyridazin-3-yl)benzamide] |
| 100 to 400 | ≥ 400 | – | Cc1cc(-c2cn(C)nn2)cc(-c2cnc3cc(-c4cnn(C)c4)c(O[C@H]4CCOC4)nn23)c1F [Example 39, (S)-3-(2-Fluoro-3-methyl-5-(1-methyl-1H-1,2,3-triazol-4-yl)phenyl)-7-(1-methyl-1H-pyrazol-4-yl)-6-((tetrahydrofuran-3-yl)oxy)imidazo[1,2-b]pyridazine] |
| – | – | < 10 | CNC(=O)c1cc(-c2cnc3cc(-c4cnn(C)c4)c(O[C@H]4CCOC4)nn23)c(F)c(C(F)F)c1 [Example 41, (S)-3-(Difluoromethyl)-4-fluoro-N-methyl-5-(7-(1-methyl-1H-pyrazol-4-yl)-6-((tetrahydrofuran-3-yl)oxy)imidazo[1,2-b]pyridazin-3-yl)benzamide] |
| – | – | < 10 | CNC(=O)c1cc(C)c(F)c(-c2cnc3cc(-c4cnn(C)c4)c(O[C@H]4CCOC4)nn23)c1 [Example 42, (S)-4-Fluoro-N,3-dimethyl-5-(7-(1-methyl-1H-pyrazol-4-yl)-6-((tetrahydrofuran-3-yl)oxy)imidazo[1,2-b]pyridazin-3-yl)benzamide] |
| – | – | < 10 | CNC(=O)c1cc(F)c(F)c(-c2cnc3cc(-c4cnn(C)c4)c(O[C@H]4CCOC4)nn23)c1 [Example 43, (S)-3,4-Difluoro-N-methyl-5-(7-(1-methyl-1H-pyrazol-4-yl)-6-((tetrahydrofuran-3-yl)oxy)imidazo[1,2-b]pyridazin-3-yl)benzamide] |
| 10 to 100 | ≥ 400 | – | CNC(=O)c1cncc(-c2cnc3cc(-c4cnn(C)c4)c(OCC(F)F)nn23)c1 [Example 50, 5-(6-(2,2-Difluoroethoxy)-7-(1-methyl-1H-pyrazol-4-yl)imidazo[1,2-b]pyridazin-3-yl)-N-methylnicotinamide] |
| 10 to 100 | 10 to 100 | – | Cn1cc(-c2cc3ncc(-c4cccc(-n5cccn5)c4)n3nc2OC2COC2)cn1 [Example 61, 3-(3-(1H-Pyrazol-1-yl)phenyl)-7-(1-methyl-1H-pyrazol-4-yl)-6-(oxetan-3-yloxy)imidazo[1,2-b]pyridazine] |
| – | – | < 10 | CNC(=O)c1cccc(-c2cnc3cc(-c4cnn(C)c4)c(O[C@H]4CCOC4)nn23)c1 [Example 63, (S)-N-Methyl-3-(7-(1-methyl-1H-pyrazol-4-yl)-6-((tetrahydrofuran-3-yl)oxy)imidazo[1,2-b]pyridazin-3-yl)benzamide] |
| 100 to 400 | ≥ 400 | – | Cn1cc(-c2cc3ncc(-c4ccc5cnn(C)c5c4)n3nc2OC2CCOC2)cn1 (stereo not drawn) [Example 65, 3-(1-Methyl-1H-indazol-6-yl)-7-(1-methyl-1H-pyrazol-4-yl)-6-((tetrahydrofuran-3-yl)oxy)imidazo[1,2-b]pyridazine] |
| 10 to 100 | 100 to 400 | – | Cn1cc(-c2cc3ncc(-c4ccc5oncc5c4)n3nc2OC2CCOC2)cn1 (stereo not drawn) [Example 66, 5-(7-(1-Methyl-1H-pyrazol-4-yl)-6-((tetrahydrofuran-3-yl)oxy)imidazo[1,2-b]pyridazin-3-yl)benzo[d]isoxazole] |
